Where two headings read alike, the source gives them in different places.
What was measured:
[1] = system: vascular smooth muscle cell line (VSMC); test: LDH release cytotoxicity assay, VSMC; type: cell-based; settings: Homo sapiens, 18 h
Description: Cytotoxicity assays. WI-L2 human B-lymphocyte line, HAAE-1 human abdominal aortic endothelial line, MH-S murine alveolar macrophage line, and J774A.1 murine tissue macrophage line were obtained from the ATCC. Human aortic endothelial cells (HAEC) and human vascular smooth muscle cells (VSMS) were obtained from Cambrex Bio Science. Jurkat E6-1T-lymphocytes were kindly provided by Dr. J. Kaye (The Scripps Research Institute). Cells were cultured in ATCC-recommended media with 10% fetal calf serum. Cells were incubated in a controlled atmosphere at 37° C., with 5 or 7% CO2. For lactate dehydrogenase (LDH) release assays, adherent cells were harvested either by addition of 0.05% trypsin/EDTA or by scraping. The cells obtained were seeded onto 96-well microtiter plates (25,000 cells/well) and allowed to recover for 24-48 h. […] Cytotoxicity was then determined by measuring lactate dehydrogenase (LDH) release from cells in culture. […] 100% Cytotoxicity was defined as the maximum amount of LDH released by dead cells as shown by trypan blue exclusion, or the highest amount of LDH detected upon lysis of cells by 0.9% Triton X-100. The IC50 values were determined by comparison of the raw duplicate data for concentration versus cytotoxicity (%) to non-linear regression analysis (Hill plot) using Graphpad v3.0 software for Macintosh. […]

[2] = system: J774A.1 murine tissue macrophage line; test: LDH release cytotoxicity assay, J774A.1; type: cell-based
Description: Cytotoxicity assays. WI-L2 human B-lymphocyte line, HAAE-1 human abdominal aortic endothelial line, MH-S murine alveolar macrophage line, and J774A.1 murine tissue macrophage line were obtained from the ATCC. Human aortic endothelial cells (HAEC) and human vascular smooth muscle cells (VSMS) were obtained from Cambrex Bio Science. Jurkat E6-1T-lymphocytes were kindly provided by Dr. J. Kaye (The Scripps Research Institute). Cells were cultured in ATCC-recommended media with 10% fetal calf serum. Cells were incubated in a controlled atmosphere at 37° C., with 5 or 7% CO2. For lactate dehydrogenase (LDH) release assays, adherent cells were harvested either by addition of 0.05% trypsin/EDTA or by scraping. The cells obtained were seeded onto 96-well microtiter plates (25,000 cells/well) and allowed to recover for 24-48 h. […] Cytotoxicity was then determined by measuring lactate dehydrogenase (LDH) release from cells in culture. […] 100% Cytotoxicity was defined as the maximum amount of LDH released by dead cells as shown by trypan blue exclusion, or the highest amount of LDH detected upon lysis of cells by 0.9% Triton X-100. The IC50 values were determined by comparison of the raw duplicate data for concentration versus cytotoxicity (%) to non-linear regression analysis (Hill plot) using Graphpad v3.0 software for Macintosh.

THP-1 monocytes = test: Monocyte morphology changes (differentiation into macrophages); type: cell-based, human; settings: for THP-1 cell adherence (differentiation into macrophages): 12.5 or 25 μM, 7 days
Description: THP-1 monocytes in suspension were plated in 8-well chambered slides. […] Media containing appropriate treatment compounds was replaced after 4 days. […]

[3] = system: WI-L2 human B-lymphocyte line; test: LDH release cytotoxicity assay, WI-L2; type: cell-based; settings: Homo sapiens; WIL2; LDH release, 0-100 μM, 18 h
Description: Cytotoxicity assays. WI-L2 human B-lymphocyte line, HAAE-1 human abdominal aortic endothelial line, MH-S murine alveolar macrophage line, and J774A.1 murine tissue macrophage line were obtained from the ATCC. Human aortic endothelial cells (HAEC) and human vascular smooth muscle cells (VSMS) were obtained from Cambrex Bio Science. Jurkat E6-1T-lymphocytes were kindly provided by Dr. J. Kaye (The Scripps Research Institute). Cells were cultured in ATCC-recommended media with 10% fetal calf serum. Cells were incubated in a controlled atmosphere at 37° C., with 5 or 7% CO2. For lactate dehydrogenase (LDH) release assays, adherent cells were harvested either by addition of 0.05% trypsin/EDTA or by scraping. The cells obtained were seeded onto 96-well microtiter plates (25,000 cells/well) and allowed to recover for 24-48 h. Cells were washed gently and media replaced with fresh media containing 5% fetal calf serum. […] Cytotoxicity was then determined by measuring lactate dehydrogenase (LDH) release from cells in culture. […] 100% Cytotoxicity was defined as the maximum amount of LDH released by dead cells as shown by trypan blue exclusion, or the highest amount of LDH detected upon lysis of cells by 0.9% Triton X-100. The IC50 values were determined by comparison of the raw duplicate data for concentration versus cytotoxicity (%) to non-linear regression analysis (Hill plot) using Graphpad v3.0 software for Macintosh.
The following cell lines were employed in this study: a human B-lymphocyte (WI-L2) described in Levy et al., Cancer 22, 517 (1968); a T-lymphocyte cell line (Jurkat E6.1) described in Weiss et al., J. Immunol. 133, 123 (1984); a vascular smooth muscle cell line (VSMC) and an abdominal aorta endothelial (HAEC) cell line described in Folkman et al., Proc. Natl. Acad. Sci. U.S.A. 76, 5217 (1979); a murine tissue macrophage (J774A.1) described in Ralph et al., J. Exp. Med. 143, 1528 (1976); and an alveolar macrophage cell line (MH-S) described in Mbawuike et al., J. Leukoc. Biol. 46, 119 (1989).

LDL / apoB-100 = LDL / apoB-100 (Homo sapiens, UniProt P04114); test: Circular dichroism of LDL secondary structure; settings: LDL 100 μg/ml with compound 10 μM, PBS pH 7.4, 37° C.
Chain of LDL / apoB-100 (P04114 28-4563, species assumed): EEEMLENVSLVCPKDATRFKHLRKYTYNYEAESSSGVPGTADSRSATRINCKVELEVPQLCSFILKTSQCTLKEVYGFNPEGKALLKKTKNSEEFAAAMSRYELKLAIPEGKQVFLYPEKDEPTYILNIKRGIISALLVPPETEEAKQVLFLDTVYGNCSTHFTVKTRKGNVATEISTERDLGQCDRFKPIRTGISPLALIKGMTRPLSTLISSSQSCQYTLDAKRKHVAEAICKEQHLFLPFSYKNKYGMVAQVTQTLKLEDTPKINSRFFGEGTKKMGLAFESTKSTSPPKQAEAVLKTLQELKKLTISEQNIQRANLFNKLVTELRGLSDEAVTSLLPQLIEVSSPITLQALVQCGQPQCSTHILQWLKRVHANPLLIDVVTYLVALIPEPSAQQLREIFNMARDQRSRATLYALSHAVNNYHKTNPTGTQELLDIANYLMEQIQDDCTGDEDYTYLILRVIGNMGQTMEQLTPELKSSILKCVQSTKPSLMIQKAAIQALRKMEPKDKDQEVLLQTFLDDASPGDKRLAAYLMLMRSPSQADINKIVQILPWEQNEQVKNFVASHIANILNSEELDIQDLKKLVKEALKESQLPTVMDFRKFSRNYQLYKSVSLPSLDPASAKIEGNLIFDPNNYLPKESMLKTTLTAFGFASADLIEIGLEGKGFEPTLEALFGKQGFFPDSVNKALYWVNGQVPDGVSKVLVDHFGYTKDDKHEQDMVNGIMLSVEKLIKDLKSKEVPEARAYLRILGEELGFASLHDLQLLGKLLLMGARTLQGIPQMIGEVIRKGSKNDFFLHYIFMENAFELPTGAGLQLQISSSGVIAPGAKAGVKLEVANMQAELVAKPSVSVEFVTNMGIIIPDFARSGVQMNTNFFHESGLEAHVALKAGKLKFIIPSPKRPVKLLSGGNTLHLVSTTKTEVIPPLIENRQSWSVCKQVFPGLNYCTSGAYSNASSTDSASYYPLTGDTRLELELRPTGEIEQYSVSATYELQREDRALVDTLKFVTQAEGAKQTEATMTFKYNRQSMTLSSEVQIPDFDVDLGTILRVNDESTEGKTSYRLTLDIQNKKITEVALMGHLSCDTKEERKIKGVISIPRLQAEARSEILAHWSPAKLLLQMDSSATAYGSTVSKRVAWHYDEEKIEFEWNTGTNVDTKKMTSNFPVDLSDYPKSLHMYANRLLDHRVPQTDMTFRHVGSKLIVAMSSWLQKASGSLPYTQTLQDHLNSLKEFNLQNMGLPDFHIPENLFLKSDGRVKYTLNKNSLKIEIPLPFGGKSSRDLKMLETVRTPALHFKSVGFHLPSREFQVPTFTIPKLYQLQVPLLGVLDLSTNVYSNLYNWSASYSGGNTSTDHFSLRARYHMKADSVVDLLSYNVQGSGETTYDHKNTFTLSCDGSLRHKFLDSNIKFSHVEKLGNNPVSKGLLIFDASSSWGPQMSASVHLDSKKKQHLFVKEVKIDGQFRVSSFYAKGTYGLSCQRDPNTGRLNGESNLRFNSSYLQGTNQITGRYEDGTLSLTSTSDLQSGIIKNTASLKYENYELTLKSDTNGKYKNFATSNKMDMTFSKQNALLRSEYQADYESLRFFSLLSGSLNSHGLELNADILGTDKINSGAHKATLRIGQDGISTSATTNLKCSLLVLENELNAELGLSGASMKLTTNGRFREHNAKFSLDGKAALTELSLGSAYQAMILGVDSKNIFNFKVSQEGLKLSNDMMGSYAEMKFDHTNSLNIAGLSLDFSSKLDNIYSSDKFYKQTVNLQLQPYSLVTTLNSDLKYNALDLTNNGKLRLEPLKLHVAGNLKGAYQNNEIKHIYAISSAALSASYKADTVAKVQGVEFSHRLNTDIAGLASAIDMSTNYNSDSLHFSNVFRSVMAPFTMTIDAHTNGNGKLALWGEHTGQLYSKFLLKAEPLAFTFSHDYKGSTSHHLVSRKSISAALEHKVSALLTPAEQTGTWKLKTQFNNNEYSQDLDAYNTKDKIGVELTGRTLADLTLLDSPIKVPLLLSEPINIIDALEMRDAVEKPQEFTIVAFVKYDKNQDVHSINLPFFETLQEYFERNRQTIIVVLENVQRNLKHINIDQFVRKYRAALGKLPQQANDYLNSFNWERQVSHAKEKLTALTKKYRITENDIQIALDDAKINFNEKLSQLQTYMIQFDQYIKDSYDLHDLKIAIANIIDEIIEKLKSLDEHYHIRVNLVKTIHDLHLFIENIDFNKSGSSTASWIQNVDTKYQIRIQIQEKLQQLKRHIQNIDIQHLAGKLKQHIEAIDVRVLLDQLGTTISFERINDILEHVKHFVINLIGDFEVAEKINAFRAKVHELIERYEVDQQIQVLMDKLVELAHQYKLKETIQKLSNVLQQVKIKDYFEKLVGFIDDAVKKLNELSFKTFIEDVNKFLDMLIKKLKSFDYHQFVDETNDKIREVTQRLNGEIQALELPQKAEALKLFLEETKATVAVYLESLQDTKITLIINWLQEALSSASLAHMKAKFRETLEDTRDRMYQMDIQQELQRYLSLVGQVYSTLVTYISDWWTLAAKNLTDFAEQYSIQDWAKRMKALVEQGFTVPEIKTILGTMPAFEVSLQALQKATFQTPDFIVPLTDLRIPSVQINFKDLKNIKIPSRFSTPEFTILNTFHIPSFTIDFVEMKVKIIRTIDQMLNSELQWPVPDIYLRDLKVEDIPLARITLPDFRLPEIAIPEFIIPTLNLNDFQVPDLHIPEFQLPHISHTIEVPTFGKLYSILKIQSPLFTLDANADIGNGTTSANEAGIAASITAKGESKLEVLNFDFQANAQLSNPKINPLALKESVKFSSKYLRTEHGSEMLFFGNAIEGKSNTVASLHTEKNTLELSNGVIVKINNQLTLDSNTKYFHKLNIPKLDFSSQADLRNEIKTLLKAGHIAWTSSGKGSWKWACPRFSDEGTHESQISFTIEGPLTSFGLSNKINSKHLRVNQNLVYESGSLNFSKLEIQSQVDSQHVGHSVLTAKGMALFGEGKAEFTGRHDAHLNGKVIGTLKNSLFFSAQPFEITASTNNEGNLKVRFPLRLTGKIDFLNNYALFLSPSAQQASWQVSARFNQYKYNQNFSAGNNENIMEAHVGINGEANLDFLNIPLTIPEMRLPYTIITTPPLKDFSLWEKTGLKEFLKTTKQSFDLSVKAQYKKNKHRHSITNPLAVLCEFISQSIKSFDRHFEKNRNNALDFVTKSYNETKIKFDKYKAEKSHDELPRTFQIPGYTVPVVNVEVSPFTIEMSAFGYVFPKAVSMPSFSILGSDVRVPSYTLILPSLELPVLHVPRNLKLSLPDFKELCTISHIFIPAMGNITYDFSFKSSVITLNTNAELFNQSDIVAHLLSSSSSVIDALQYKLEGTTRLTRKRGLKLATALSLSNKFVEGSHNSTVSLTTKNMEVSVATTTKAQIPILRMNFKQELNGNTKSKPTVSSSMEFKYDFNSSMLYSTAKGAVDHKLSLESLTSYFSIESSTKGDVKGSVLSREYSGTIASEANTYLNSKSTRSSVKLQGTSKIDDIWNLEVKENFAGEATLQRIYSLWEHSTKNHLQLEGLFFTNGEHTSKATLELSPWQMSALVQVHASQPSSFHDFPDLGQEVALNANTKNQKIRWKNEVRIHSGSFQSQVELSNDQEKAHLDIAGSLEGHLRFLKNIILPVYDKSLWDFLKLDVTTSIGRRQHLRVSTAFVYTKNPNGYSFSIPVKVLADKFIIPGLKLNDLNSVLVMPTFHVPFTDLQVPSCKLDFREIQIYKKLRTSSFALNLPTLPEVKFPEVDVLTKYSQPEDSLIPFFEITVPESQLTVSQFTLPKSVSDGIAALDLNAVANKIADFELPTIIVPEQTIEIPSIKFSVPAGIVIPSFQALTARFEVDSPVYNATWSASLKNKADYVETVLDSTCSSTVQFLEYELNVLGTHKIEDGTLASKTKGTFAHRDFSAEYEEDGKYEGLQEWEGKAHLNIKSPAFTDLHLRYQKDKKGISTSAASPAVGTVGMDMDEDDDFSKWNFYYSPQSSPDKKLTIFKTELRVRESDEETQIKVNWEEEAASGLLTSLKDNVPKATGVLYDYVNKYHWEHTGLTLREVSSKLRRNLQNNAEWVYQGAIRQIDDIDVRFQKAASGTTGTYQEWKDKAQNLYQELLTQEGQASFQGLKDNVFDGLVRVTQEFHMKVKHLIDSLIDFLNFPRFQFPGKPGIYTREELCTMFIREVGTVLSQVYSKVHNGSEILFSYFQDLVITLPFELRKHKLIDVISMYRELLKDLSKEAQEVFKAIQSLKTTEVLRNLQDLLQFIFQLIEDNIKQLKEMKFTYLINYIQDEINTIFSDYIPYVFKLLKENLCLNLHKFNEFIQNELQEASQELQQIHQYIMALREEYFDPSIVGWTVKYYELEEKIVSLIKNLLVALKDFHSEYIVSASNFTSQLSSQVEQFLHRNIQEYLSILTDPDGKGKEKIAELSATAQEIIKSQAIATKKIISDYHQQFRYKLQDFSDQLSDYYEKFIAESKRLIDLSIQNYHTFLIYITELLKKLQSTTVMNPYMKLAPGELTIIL
Description: Circular dichroism. […] Spectra were recorded in the peptidic range (200-260 nm). To increase the signal-to-noise ratio, multiple spectra (three) were averaged for each measurement.

ICAM-1 = test: Endothelial adhesion molecule expression ELISA, ICAM-1; type: cell-based, human; settings: for integrin (ICAM-1) expression: HAAE-1, not complexed with LDL
Description: Endothelial cell surface adhesion molecule expression was measured by ELISA, using anti-human CD54 (ICAM-1), CD106 (VCAM-1) and CD62E (E-Selectin) antibodies (Leinco Technologies, Inc., St. Louis, Mo.). The ELISA method was modified from previously described procedures.
Cells were then incubated with antibodies to VCAM-1, E-selectin, or ICAM-1 diluted 1:400 in PBS containing 5% FCS at 37° C. for 30 min. Wells were washed two times with PBS, then incubated with horseradish peroxidase (HRP)-conjugated goat anti-mouse IgG (Southern Biotechnology Associates, Birmingham, Ala., USA) in PBS/5% FCS at 37° C. for 30 min. The wells were washed four times with PBS, then incubated with H2O2/3,3′,5,5′-tetramethyl-benzidine peroxidase substrate (Pierce Chemical, Rockford, Ill., USA) for 30 min in the dark. The reaction was stopped by adding 25 μl of 8 N H2SO4, and the plates read on a microplate reader, blanking on wells stained with only secondary antibody. Each assay was performed in triplicate and the data are reported as the mean±SEM as a percentage of the expression level of the vehicle. To study the effect of cholesterol ozonation product 5a concentration (5-50 μM) on E-selectin expression, the assay was performed in an identical fashion as described above, with each point being the mean±SEM of at least duplicate measurements.

[4] = system: Class A scavenger receptor (SR-A); test: Scavenger receptor expression by flow cytometry, SR-A; type: cell-based, murine; settings: for upregulation of SR-A: J774A.1, 25 μM with LDL (100 μg/ml protein), 6 h; for SR-A expression: cultured macrophages, in the absence of LDL
Description: (§1) Cell surface CD36 and SR-A were measured by flow cytometry using CD36 (BD Biosciences Pharmingen, San Diego, Calif.) and CD204 (Serotec, Oxford, UK) specific monoclonal antibodies. See Liao et al. (2000) Arterioscler. Thromb. Vasc. Biol. 20: 1968-75; Hu et al. (1996) Blood 87: 2020-28. Murine macrophage J774A.1 cells were serum-starved overnight in media with 0.5% BSA. Cells (1×10^6) treated with cholesterol ozonation products or cholesterol ozonation product complexed with LDL for specified times were then washed twice with PBS. After harvesting the cells by scraping, they were fixed with 6% paraformaldehyde for 20 min. Cells were then resuspended in PBS containing 2% heat-inactivated FCS, 0.05% NaN3 and appropriate primary antibody, antibody conjugate or isotype control (1:100 dilution) and incubated on ice for 30 min. Expression of either CD36 or SR-A was determined with CD36 (BD Biosciences Pharmingen, San Diego, Calif.) and CD204 (Serotec, Oxford, U.K.) specific monoclonal antibodies, respectively. After washing off the primary antibody, secondary antibodies were added, cells were washed again, then analyzed on a FACS calibur 2 (Becton Dickinson, Sparks, Md.) flow cytometer and analyzed by CellQuant software. Results were expressed as mean fluorescence intensity±standard error of the mean (SEM) of at least duplicate determinations. Significance was determined using a student two-tail t test, with (*) indicating p<0.05, and (**) indicating p<0.01 versus the control.

CD36 = test: Scavenger receptor expression by flow cytometry, CD36; type: cell-based, murine
Description: as §1

[5] = J774A.1, 25 μM complexed with LDL (100 μg/ml protein), 6 h
[6] = cultured macrophages, in the absence of LDL

| Compound | IC50 [1] | IC50 ([2]; Mus musculus, J774.A1, 18 h) | concentration that causes THP-1 cell differentiation (THP-1 monocytes) | THP-1 cell adherence (differentiation into macrophages) (THP-1 monocytes) | IC50 [3] | random coil of LDL (LDL / apoB-100) | α helical structure of LDL (LDL / apoB-100) | integrin (ICAM-1) expression (ICAM-1) | upregulation of SR-A [4] | SR-A expression [4] | CD36 expression (CD36; [5]) | CD36 expression (CD36; [6]) | IC50 ([1]; LDH release, 0-100 μM, read-out: IC50) | IC50 ([2]; J774A.1, LDH release, 0-100 μM, 18 h, read-out: IC50) | ICAM-1 levels (ICAM-1; HAAE-1, 25 μM in the presence of LDL, or lipoprotein alone) |
| --- | --- | --- | --- | --- | --- | --- | --- | --- | --- | --- | --- | --- | --- | --- | --- |
| CC(C)CCC[C@@H](C)[C@H]1CCC2C3C(CC[C@@]21C)[C@@]1(C)CC[C@H](O)C[C@@]1(O)[C@@H]3C=O (stereo partly drawn) [5a, 3β-Hydroxy-5β-hydroxy-B-norcholestane-6β-carboxaldehyde] | 29.8 ± 2.8 µM | 26.1 ± 2.8 µM | 25 µM | began to adhere after 4 days | 17.7 ± 2.3 µM | 32±4% | ~20±2% | no effects | approximately 3 fold | did not increase expression | little or no effect | did not increase expression | – | – | – |
| CC(C)CCC[C@@H](C)[C@H]1CCC2C(CC=O)C([C@@]3(C)CC[C@H](O)CC3=O)CC[C@@]21C (stereo partly drawn) [4a, 3β-Hydroxy-5-oxo-5,6-secocholestan-6-al] | – | – | – | induced no cell adherence | 10.9 ± 1.6 µM | ~39±2% | ~23±5% | no effects | approximately 3 fold | did not increase expression | little or no effect | did not increase expression | 21.9 ± 2.2 µM | 15.6 ± 2.1 µM | remain unchanged |

From patent US20070059242A1, “METHODS TO IDENTIFY THERAPEUTIC AGENTS” (priority 2005, published 2007)
